Assay results as given in patent publication US20150190396A1, “TREATMENT OF TYPE I AND TYPE II DIABETES” (Melior Pharmaceuticals I, Inc., priority 2011, published 2015).
Entries after “also recorded” stand apart in the source; their conditions may differ.

Columns and labels:
Assay type in all cases: in vivo
[1] = tested on: streptozocin Type I diabetic male CD-1: ICR mice; assay: Streptozocin Type I diabetic mice, insulin tolerance test, blood glucose
Method: In the present study, male CD-1: ICR mice (Charles River) approximately 8 weeks of age were used. Streptozocin administration to mice destroys pancreatic β-cells and is used to produce a model of Type I diabetes. In response to loss of pancreatic β-cells, mice become hyperglycemic. These mice are insulin responsive.
Streptozocin administration: Streptozocin administration to mice was conducted by a standard method. Briefly, mice were administered STZ at a dose-level of 70 mg/kg on day 1, 3 and 8. Each administration was preceded by an 18 hour fast. Mice were administered insulin (0.5 U) on days 2 and 9. On day 11, blood glucose levels were measured. Mice with blood glucose levels less than 300 mg/dL were excluded from the study. Mice were randomized to treatment groups.
Mice were tested on the insulin tolerance test on day 14 after the initial STZ administration. Mice were administered insulin (0.35U s.c.) and then 30 minutes later administered Compound 102 (100 mg/kg i.p.).
Blood glucose was measured 5, 15, 30, 60, 90, 120, 180, 240, 360, and 480 minutes after Compound 102 or vehicle administration. Blood was collected from a tail snip and drop of blood measured for glucose levels by glucometer (Accu-Chek Aviva Glucometers; Roche Diagnostics).
Data are expressed as the average±SEM. Data were analyzed by two-way ANOVA followed by post-hoc Bonferroni test. N=6/group

[2] = tested on: male DbDb Lep-deficient mice; assay: Db/Db Study 2: blood glucose 24-72 hours after insulin and/or Compound 102; details: for blood glucose levels compared with vehicle controls: twenty-four hours after administration alone, insulin 1.5 units/kg or Compound 102 100 mg/kg, 18 week old db/db mice
Method: In the present study, male DbDb Lep-deficient mice (Harlan Laboratories) approximately 18 weeks of age were used. [table] Procedure: Mice were divided into 4 groups of 6 mice per group. Blood glucose levels were measured using Accu-Chek Aviva Glucometers (Roche Diagnostics). The times of blood glucose levels were measured up to 72 hours after administration. Glucometers were calibrated prior to each study. […] Glucose levels are reported as mg/dL. In study 2, animals were fasted for 4 hours prior to each blood glucose measurement time point and then returned to ad libitum food. Data are expressed as the average±SEM. Data were analyzed by two-way ANOVA followed by post-hoc Bonferroni test. N=6/group Results: A second study was conducted to repeat the findings of Compound 102 effects on insulin action in the 24-72 hours time window and specifically to follow the insulin/Compound 102 combination effect through until it returned to normal levels (i.e., that of vehicle-treated animals). In the second study, there were three differences from the first: 1) mice were 18 weeks of age at the time of study, 2) the insulin dose-level was reduced from 3 to 1.5 U/kg and 3) blood glucose levels were measured out until 72 hours after administration.

[3] = tested on: male DbDb Lep-deficient mice; assay: Db/Db Study 1: blood glucose after insulin and/or Compound 102
Method: In the present study, male DbDb Lep-deficient mice (Harlan Laboratories) approximately 16 weeks of age were used. [table] Procedure: Mice were divided into 4 groups of 6 mice per group. Blood glucose levels were measured using Accu-Chek Aviva Glucometers (Roche Diagnostics). The times of blood glucose levels were measured up to 72 hours after administration. Glucometers were calibrated prior to each study. […] Glucose levels are reported as mg/dL. In study 1, animals were fasted for 4 hours prior to the administration of test articles and then continuously fasted through to the 8-hour time point. Animals were then provided food ad libitum until 4-hour prior to the 28-hour time point at which point they were fasted until the last blood glucose measurement time point. Data are expressed as the average±SEM. Data were analyzed by two-way ANOVA followed by post-hoc Bonferroni test. N=6/group.

| Compound | effect on insulin action / insulin-mediated blood glucose lowering ([1]; Compound 102 100 mg/kg i.p. 30 minutes after insulin, p<0.05, p<0.001 versus insulin alone, FIG. 3, 100 mg/kg) | insulin-mediated blood glucose reduction to ([1]; Compound 102 100 mg/kg i.p. administered 30 minutes after insulin (0.35)) [mg/dL] | effect on blood glucose levels ([1]; Compound 102 100 mg/kg i.p. alone, insulin depleted mice, up to 6 hours, 100 mg/kg) | blood glucose levels still reduced up to ([1]; Compound 102 100 mg/kg i.p. in combination with insulin, time after administration) | blood glucose levels compared with vehicle controls [2] | effect on blood glucose levels ([3]; Compound 102 100 mg/kg alone, 100 mg/kg) | blood glucose levels ([1]; insulin alone (0.35), 90 minutes after administration, baseline 546 mg/dL) [mg/dL] | time at which blood glucose levels returned to baseline levels ([1]; insulin alone (0.35), after administration) [h] | blood glucose in the insulin treated group ([2]; insulin 1.5 units/kg alone, 24-72 hours window (elevation at 24 and 36 hour time points, rebound effect)) | time by which blood glucose levels returned to baseline levels ([3]; insulin 3 units/kg alone) [h] | blood glucose levels ([3]; insulin 3 units/kg alone, three hours after administration, fasted 16 week old db/db mice, baseline averaged 482 mg/dL) [mg/dL] |
| --- | --- | --- | --- | --- | --- | --- | --- | --- | --- | --- | --- |
| Cc1cccc(Oc2cnc(=O)[nH]c2)c1 [Compound 102] | potentiated the insulin effect; also recorded: potentiated and prolonged the actions of insulin; also recorded: potentiated and prolonged insulin-mediated blood glucose lowering | 157 | did not affect blood glucose levels at any time point up to 6 hours after administration | up to 6 hours | not different from vehicle controls | did not significantly affect blood glucose levels at any time point after administration; also recorded: Small, but statistically insignificant lowering of blood glucose |  |  |  |  |  |
| Insulin [reference compound] |  |  |  |  | not different from vehicle controls |  | 263 | 4.5 | does not show blood glucose lowering; also recorded: slightly elevated blood glucose | ≤ 8 | 166.5 |
